Assay results taken from patent publication US20240294508A1, “RIP1 MODULATORS INCLUDING AZETIDINE CYCLIC UREAS, PREPARATIONS, AND USES THEREOF” (SIRONAX LTD., priority 2021, published 2024).

Test system: HT-29 cells
Assay: HT29 cells 0FBS assay in vitro: TNF-α/SMAC mimetic/zVAD-FMK induced necroptosis, CellTiter-Glo cell viability (RIP1 inhibitory activity)
Assay type: cell-based
Conditions: Homo sapiens, FBS free medium, TNF-α (10 ng/ml) + SMAC mimetic (6 uM) + zVAD-FMK (10 μM), 20 hours, geometric mean EC50
Source text: Protocol for HT29 Cells 0FBS Assay In Vitro
• Cell line: HT-29 (ATCC® HTB-38™) • Culture medium: McCOY's 5A, Gibco, Cat No. 16600-082 • FBS, Gibco, Cat No. 10099-141C • Trypsin: Gibco, Cat No. 25200-056 • DMSO: Sigma, Cat No. 67-68-5, 1L • Assay plate: Corning #3903 • Compound dilution plate: Corning #3357 • Inducers: TNFα, GenScript, Cat No. Z01001-50, • SmacM, Cat. No., HY-15989, MedChemExpress (MCE) • Z_VAD FMK, TargetMol, T6013 • Cell Titer-Glo® Luminescent Cell Viability Assay Kit: Promega, Cat No. G7573 • EnVision: PerkinElmer, 2105-0010
2. Cell Seeding of HT-29 Cells
1) HT-29 cells were checked every day to make sure they are healthy and growing as expected. They were split sub-culturing when were approximately 80% confluent.
2) First pre-warm the culture medium of McCOY's 5A medium (Gibco, Cat No. 16600-082) with 10% FBS (Gibco, Cat No. 10099-141C) in 37° C. water bath for at least 30 min.
3) Growing cells to desired level of confluency 80% in a T75 flask, aspirate the medium, and wash with warm PBS two times.
4) Add 2-3 ml fresh warm trypsin (Gibco, Cat No. 25200-056) solution. Transfer the flask to a 37° C. incubator.
5) After 5 minutes, tap the side of the flask, and examine the flask under a microscope for lifting. If necessary, return the cells to the incubator for an additional 5-10 minutes, with occasional tapping, until lifting is complete.
6) Quickly neutralize the trypsin reaction by adding 6-9 ml cell culture medium, then transfer the cells to sterile 15 ml conical tubes. Pellet the cells by centrifugation at 300×g for 7 minutes, then decant the supernatant.
7) Resuspend the cells in fresh cell culture medium. Do cell counting with hemocytometer.
8) Seed 100 μl of 5,000 cells into each well of the sterile 96-well cell culture plate (Corning 3903) and culture overnight at 37° C. with 5% CO2.
3. Compounds Titration and Treatment of HT-29 Cells
1) All batches of compounds (CPDs0 (e.g., compound 1-169) were dissolved in DMSO (Dimethyl sulfoxide) as 20 mM stock solution.
2) Take 3 ul 20 mM stock solution of CPDs to […] DMSO and mix well, continue the titration ratio of 1:3 (20 ul CPDs+40 ul DMSO), e.g., to give solutions of CPDS at 6.6 mM, 2.2 mM, etc., till the 10 points end.
3) Take out assay plates with HT-29 cells from incubator, remove all culture medium then wash 1 time with 1×PBS, and change fresh McCOY's 5A medium of FBS free with a cocktail of TNF-α (10 ng/ml), the SMAC mimetic (6 uM) and zVAD-FMK (10 μM) to stimulate the HT-29 cells to increase pRIPK1 levels and necroptosis.
4) Add 0.5 μL of the diluted compound to the corresponding 96-well assay plates.
5) Incubate the assay plates for 20 hours at 37° C. with 5% CO2.
4. Performing Cell Viability Detection of HT-29 Cells after Treated with Compounds
1) The CellTiter-Glo® Luminescent Cell Viability Assay was employed to detect the ATP levels of viable HT-29 cells.
2) Equilibrate the CellTiter-Glo® buffer and the lyophilized substrate to room temperature prior to use.
3) Resuspend the CellTiter-Glo® substrate with CellTiter-Glo® buffer, mix by gently vortexing to obtain a homogeneous solution.
4) Pipette 20 μl the enzyme/substrate mixture by multi-channel pipette into the 96-well assay plates from step 5) under the Compounds titration and treatment stage.
5) Place the plates on an orbital shaker and mix the contents for 3 minutes to induce cell lysis.
6) Then allow the plates to incubate at room temperature for 10 minutes to stabilize luminescent signal.
7) Read and record luminescence signal with EnVision.
8) The geometric mean EC50 of the compounds were calculated from 10 points response dose with duplicate. In Table 2, activity is provided as follows: +++=0.1 nM≤EC50<100 nM; ++=100 nM≤EC5 1000 nM; […].

`Cc1cnn(C)c1-c1ccc(F)c(OC2CN(C(=O)N3N=CC[C@H]3c3cncc(C#N)c3)C2)n1` [Compound 55, (S)-5-(1-(3-((6-(1,4-dimethyl-1H-pyrazol-5-yl)-3-fluoropyridin-2-yl)oxy)azetidine-1-carbonyl)-4,5-dihydro-1H-pyrazol-5-yl)nicotinonitrile] was tested, and the EC50 was 0.0001 to 0.1 µM.

For `Cc1cc(F)cc(C2CC=NN2C(=O)N2CC(Oc3cc(-n4nc(C)c(C(N)=O)c4C)ncc3F)C2)c1` (centres unmarked) [Compound 118, 1-(5-fluoro-4-((1-(5-(3-fluoro-5-methylphenyl)-4,5-dihydro-1H-pyrazole-1-carbonyl)azetidin-3-yl)oxy)pyridin-2-yl)-3,5-dimethyl-1H-pyrazole-4-carboxamide], the EC50 was 0.0001 to 0.1 µM.

For `Cc1cn(C)c(-c2cc(OC3CN(C(=O)N4N=CC[C@H]4c4cc(F)cc(C#N)c4)C3)c(F)cn2)n1` [Compound 23, (S)-3-(1-(3-((2-(1,4-dimethyl-1H-imidazol-2-yl)-5-fluoropyridin-4-yl)oxy)azetidine-1-carbonyl)-4,5-dihydro-1H-pyrazol-5-yl)-5-fluorobenzonitrile], the EC50 was 0.0001 to 0.1 µM.

`Cc1nn(-c2cc(OC3CN(C(=O)N4N=CC[C@H]4c4cccc(F)c4)C3)c(F)cn2)c(C)c1C(N)=O` [Compound 73, (S)-1-(5-fluoro-4-((1-(5-(3-fluorophenyl)-4,5-dihydro-1H-pyrazole-1-carbonyl)azetidin-3-yl)oxy)pyridin-2-yl)-3,5-dimethyl-1H-pyrazole-4-carb oxamide] was tested, and the EC50 was 0.0001 to 0.1 µM.

`Cc1cnn(C)c1-c1cc(OC2CN(C(=O)N3N=CCC3c3ccccn3)C2)c(F)cn1` (centres unmarked) [Compound 100, (3-((2-(1,4-dimethyl-1H-pyrazol-5-yl)-5-fluoropyridin-4-yl)oxy)azetidin-1-yl)(5-(pyridin-2-yl)-4,5-dihydro-1H-pyrazol-1-yl)methanone] showed an EC50 of 0.0001 to 0.1 µM.

For `COc1nccc(C)c1-c1cc(OC2CN(C(=O)N3N=CC[C@H]3c3cc(F)cc(F)c3)C2)c(F)cn1` [Compound 165, (S)-(5-(3,5-difluorophenyl)-4,5-dihydro-1H-pyrazol-1-yl)(3-((5-fluoro-2′-methoxy-4′-methyl-[2,3′-bipyridin]-4-yl)oxy)azetidin-1-yl)methanone], the EC50 was 0.1 to 1 µM.

With `Cn1ncc(C#N)c1-c1ccc(F)c(OC2CN(C(=O)N3N=CC[C@H]3c3cc(F)cc(C#N)c3)C2)n1` [Compound 40, (S)-5-(6-((1-(5-(3-cyano-5-fluorophenyl)-4,5-dihydro-1H-pyrazole-1-carbonyl)azetidin-3-yl)oxy)-5-fluoropyridin-2-yl)-1-methyl-1H-pyrazole-4-carbonitrile] the EC50 was 0.0001 to 0.1 µM.

`Cc1ncc([C@@H]2CC=NN2C(=O)N2CC(Oc3cc(-c4c(C)cnn4C)ncc3F)C2)s1` [Compound 108, (S)-(3-((2-(1,4-dimethyl-1H-pyrazol-5-yl)-5-fluoropyridin-4-yl)oxy)azetidin-1-yl)(5-(2-methylthiazol-5-yl)-4,5-dihydro-1H-pyrazol-1-yl)methanone] was tested, and the EC50 was 0.0001 to 0.1 µM.

In the case of `Cn1ccnc1-c1cc(OC2CN(C(=O)N3N=CC[C@H]3c3cc(F)cc(C#N)c3)C2)c(F)cn1` [Compound 36, (S)-3-fluoro-5-(1-(3-((5-fluoro-2-(1-methyl-1H-imidazol-2-yl)pyridin-4-yl)oxy)azetidine-1-carbonyl)-4,5-dihydro-1H-pyrazol-5-yl)benzonitrile], the EC50 is reported as 0.0001 to 0.1 µM.

In the case of `Cc1c(N)nn(C)c1-c1cc(OC2CN(C(=O)N3N=CC[C@H]3c3cc(F)cc(C#N)c3)C2)c(F)cn1` [Compound 49, (S)-3-(1-(3-((2-(3-amino-1,4-dimethyl-1H-pyrazol-5-yl)-5-fluoropyridin-4-yl)oxy)azetidine-1-carbonyl)-4,5-dihydro-1H-pyrazol-5-yl)-5-fluoro benzonitrile], the EC50 is reported as 0.0001 to 0.1 µM.

Work on `Cn1ncc(Cl)c1-c1ncc(F)c(OC2CN(C(=O)N3N=CC[C@H]3c3cc(F)cc(C#N)c3)C2)n1` [Compound 16] yielded an EC50 of 0.0001 to 0.1 µM.

With `Cn1nc(N)cc1-c1cc(OC2CN(C(=O)N3N=CC[C@H]3c3cc(F)cc(C#N)c3)C2)c(F)cn1` [Compound 35, (S)-3-(1-(3-((2-(3-amino-1-methyl-1H-pyrazol-5-yl)-5-fluoropyridin-4-yl)oxy)azetidine-1-carbonyl)-4,5-dihydro-1H-pyrazol-5-yl)-5-fluorobenzonitrile] the EC50 was 0.0001 to 0.1 µM.

For `Cc1c(C(N)=O)nn(C)c1-c1ccc(F)c(OC2CN(C(=O)N3N=CC[C@H]3c3cc(F)cc(C#N)c3)C2)n1` [Compound 59, (S)-5-(6-((1-(5-(3-cyano-5-fluorophenyl)-4,5-dihydro-1H-pyrazole-1-carbonyl)azetidin-3-yl)oxy)-5-fluoropyridin-2-yl)-1,4-dimethyl-1H-pyrazole-3-carboxamide], the EC50 was 0.0001 to 0.1 µM.

With `Cc1nn(-c2cc(OC3CN(C(=O)N4N=CC[C@H]4c4cc(F)cc(C#N)c4)C3)c(F)cn2)c(C)c1C(N)=O` [Compound 70, (S)-1-(4-((1-(5-(3-cyano-5-fluorophenyl)-4,5-dihydro-1H-pyrazole-1-carbonyl)azetidin-3-yl)oxy)-5-fluoropyridin-2-yl)-3,5-dimethyl-1H-pyrazole-4-carboxamide] the EC50 was 0.0001 to 0.1 µM.

`Cn1nccc1-c1cc(OC2CN(C(=O)N3N=CC[C@H]3c3cc(F)cc(C#N)c3)C2)c(F)cn1` [Compound 7, (S)-3-fluoro-5-(1-(3-((5-fluoro-2-(1-methyl-1H-pyrazol-5-yl)pyridin-4-yl)oxy)azetidine-1-carbonyl)-4,5-dihydro-1H-pyrazol-5-yl)benzonitrile] showed an EC50 of 0.0001 to 0.1 µM.

In the case of `Cc1nc(C)c(C2CC=NN2C(=O)N2CC(Oc3cc(-c4c(C)cnn4C)ncc3F)C2)s1` (centres unmarked) [Compound 119, (3-((2-(1,4-dimethyl-1H-pyrazol-5-yl)-5-fluoropyridin-4-yl)oxy)azetidin-1-yl)(5-(2,4-dimethylthiazol-5-yl)-4,5-dihydro-1H-pyrazol-1-yl)methanone], the EC50 is reported as 0.1 to 1 µM.

Molecule `Cc1ccn(C)c(=O)c1-c1cc(OC2CN(C(=O)N3N=CC[C@H]3c3cc(F)cc(F)c3)C2)c(F)cn1` [Compound 168, (S)-4-((1-(5-(3,5-difluorophenyl)-4,5-dihydro-1H-pyrazole-1-carbonyl)azetidin-3-yl)oxy)-5-fluoro-1′,4′-dimethyl-[2,3′-bipyridin]-2′(1′H)-one] has an EC50 of 1 to 10 µM.

`COc1ncccc1-c1cc(OC2CN(C(=O)N3N=CC[C@H]3c3cc(F)cc(F)c3)C2)c(F)cn1` [Compound 164, (S)-(5-(3,5-difluorophenyl)-4,5-dihydro-1H-pyrazol-1-yl)(3-((5-fluoro-2′-methoxy-[2,3′-bipyridin]-4-yl)oxy)azetidin-1-yl)methanone] was tested, and the EC50 was 0.0001 to 0.1 µM.

`Cc1cnn(C)c1-c1cnc(OC2CN(C(=O)N3N=CC[C@H]3c3cc(F)cc(F)c3)C2)s1` [Compound 154, (S)-(5-(3,5-difluorophenyl)-4,5-dihydro-1H-pyrazol-1-yl)(3-((5-(1,4-dimethyl-1H-pyrazol-5-yl)thiazol-2-yl)oxy)azetidin-1-yl)methanone] gave an EC50 of 0.0001 to 0.1 µM.

Molecule `Cc1nn(-c2cc(OC3CN(C(=O)N4N=CC[C@H]4c4cncc(F)c4)C3)c(F)cn2)c(C)c1C(N)=O` [Compound 63, (S)-1-(5-fluoro-4-((1-(5-(5-fluoropyridin-3-yl)-4,5-dihydro-1H-pyrazole-1-carbonyl)azetidin-3-yl)oxy)pyridin-2-yl)-3,5-dimethyl-1H-pyrazole-4-carboxamide] has an EC50 of 0.1 to 1 µM.
